Source: US7071168B2, “Anti-cancer compounds and methods related thereto” (The Regents of the University of Colorado, priority 1998, dated 2006)

What was measured:
[1] = test system: PPC1; assay: Cytotoxicity in vitro (MTT), prostate cancer cell line PPC1; type: cell-based, human
Method: (§1) In general, Anti-bradykinin activity was determined by the classical guinea pig ileum assay and on Chinese hamster ovary (CHO) cells expressing cloned human bradykinin B2 receptors. Anti-tumor activity was determined on cultured human cancer cell lines using the standard tetrazolium (MTT) assay.
(§2) Cell growth and survival were measured by a rapid colorimetric assay based on the tetrazolium salt MTT (3-(4,5-dimethylthiazol-2-yl)-2,5-diphenyl tetrazolium bromide) (Mosmann, J Immunol. Methods 65: 55–63, 1983, with minor modifications). Briefly, 1,000 normal lung fibroblasts or normal epithelial BEAS-2B cells, 1,000 or 5,000 viable non-SCLC cells or 10,000 viable SCLC cells were plated in 100 μL of growth medium in 96-well flat-bottomed microtiter plates. Cells were incubated overnight to allow recovery. Compounds to be tested were added to the cells in triplicate in a range of concentrations and the cells were incubated at 37° C., 5% CO2, with 100% humidity. Control cells were treated in the same way without antagonists. […] Plates were incubated for 4 days, allowing sufficient time for cell replication and compound-induced cell death to occur. On day 5, 25 μL of a 2 mg/mL solution of MTT (Sigma) dissolved in RMPI-1640was added to each well. The plate was incubated for 4 h at 37° C. The supernate was removed and the blue formazan complex was dissolved by adding 100 μL of 0.02 N HCl in 75% isopropanol to all wells. Absorbance was immediately determined using a scanning multiwell plate reader. B9870 caused 50% cell death at a concentration of 0.15 μM under these conditions.

[2] = test system: TSU; assay: Cytotoxicity in vitro (MTT), prostate cancer cell line TSU; type: cell-based, human
Method: as §1, §2

[3] = test system: SCLC strain SHP-77; assay: Colorimetric tetrazolium (MTT) assay for cell survival, SCLC strain SHP-77; type: cell-based, human; settings: for ED50 for cytotoxic activity, SCLC SHP-77: Table 5, included for comparison
Method in brief: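 MTT assay: cells seeded overnight, treated in triplicate across a concentration range for 4 days at 37 °C, 5% CO2. On day 5, MTT was added for 4 h; formazan was dissolved in acidified isopropanol and absorbance read.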

[4] = test system: SCLC strain SHP-77; assay: Inhibition of tumor growth in vivo in nude mice, SCLC strain SHP-77; settings: for inhibition of growth in vivo of SCLC strain SHP-77: figure legends, nude mice, i.p. daily
Method: Representative peptide and non-peptide compounds having high in vitro cytotoxic activity were tested against implanted tumors in vivo. Athymic nude mice were implanted subcutaneously with either single cell suspensions (2 million SCLC cells or 1 million NSCLC cells) or with small fragments (3×3 mm) of tumors minced from previously grown nude mouse heterotransplants. On the seventh day after tumor implantation groups of 5 mice bearing implants were injected intraperitoneally daily with the compounds being tested at 1, 5, or 10 mg/kg/day; control animals were injected with an equal volume of isotonic saline. Tumor size was measured with a caliper three times per week. Tumor volume was calculated by the formula: Volume (cc)=π×(length)×(width)^2/6

[5] = test system: LNCa; assay: Cytotoxicity in vitro (MTT), prostate cancer cell line LNCa; type: cell-based, human
Method: as §1, §2

[6] = test system: PC-3; assay: Cytotoxicity in vitro (MTT), prostate cancer cell line PC-3; type: cell-based, human
Method: as §1, §2

[7] = test system: bradykinin response of isolated guinea pig ileum; assay: Anti-bradykinin activity on isolated guinea pig ileum; settings: for GPI: pA2 for bradykinin antagonist activity on isolated guinea pig ileum: higher numbers indicate higher potency
Method in brief: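 Terminal ileum segments (25 mm) from overnight-fasted male Hartley guinea pigs, in Krebs' solution gassed with 95% O2/5% CO2 under 1 g tension, equilibrated 1 h. Bradykinin concentration-effect curves constructed without and with test compounds.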

[8] = test system: DU14; assay: Cytotoxicity in vitro (MTT), prostate cancer cell line DU14; type: cell-based, human
Method: as §1, §2

[9] = molecular target: T1, cloned human bradykinin B2 receptors (Homo sapiens, UniProt P30411); assay: Anti-bradykinin activity on cloned human B2 receptors (CHO cells, Cytosensor microphysiometer); type: cell-based; settings: for HUMAN: pA2 for bradykinin antagonist potency on cloned human B2 receptors: higher numbers indicate higher potency
T1 sequence (P30411 1-391): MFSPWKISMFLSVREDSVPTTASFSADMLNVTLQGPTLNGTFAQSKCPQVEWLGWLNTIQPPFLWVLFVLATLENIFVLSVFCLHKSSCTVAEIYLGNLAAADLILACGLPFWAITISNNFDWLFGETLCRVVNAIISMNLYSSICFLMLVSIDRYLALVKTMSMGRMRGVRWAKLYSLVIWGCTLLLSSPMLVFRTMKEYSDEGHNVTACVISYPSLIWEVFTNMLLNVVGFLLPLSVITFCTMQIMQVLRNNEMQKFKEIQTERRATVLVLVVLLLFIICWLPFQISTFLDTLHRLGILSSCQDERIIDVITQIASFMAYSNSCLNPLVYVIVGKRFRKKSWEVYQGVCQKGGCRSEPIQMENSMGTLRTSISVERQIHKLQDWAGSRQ
Method: as §1
Chinese hamster ovary cells containing cloned and expressed human bradykinin B2 receptors were grown in cell cups of the Cytosensor microphysiometer in Ham's F-12 medium supplemented with sodium pyruvate and 10% FBS (Gibco 11765-054). For assay the cells were transferred to Ham's F-12 without bicarbonate or serum (Gibco 21700-075) and placed in the Cytosensor. Concentration-response curves were constructed to bradykinin in the presence or absence of new compounds.

[10] = isolated guinea pig ileum, pD2 of bradykinin is 7.4
[11] = cloned human B2 receptors, pD2 for bradykinin is 11

Row | Compound | MTT: ED50 for killing of SCLC strain SHP-77 in vitro ([3]; SCLC strain SHP-77 in vitro) [µM] | GPI: pA2 for bradykinin antagonist activity on isolated guinea pig ileum [7, 10] | MTT: ED50 for killing of SCLC strain SHP-77 in vitro ([3]; Table 1, SHP-77, MTT, 4 days) [µM] | GPI: pA2 for bradykinin antagonist activity on isolated guinea pig ileum ([7]; Table 1) | HUMAN: pA2 for bradykinin antagonist potency on cloned human B2 receptors [9, 11] | further results
1 | CC1(C)CC(NC(=O)[C@H](Cc2ccc(OCc3c(Cl)cccc3Cl)cc2)NC(=O)/C=C/c2c(F)c(F)c(F)c(F)c2F)CC(C)(C)N1 [M570, F5c-OC2Y-Atmp] | 1.8 | 5.6 |  |  |  | ED50 for cytotoxic activity, PPC1 [1]: 3.0 µM; ED50 for cytotoxic activity, TSU [2]: 2.8 µM; ED50 for cytotoxic activity, SCLC SHP-77 [3]: 1.8 µM; inhibition of growth in vivo of SCLC strain SHP-77 [4]: inhibition of growth; ED50 for cytotoxic activity, LNCa [5]: 3.0 µM; ED50 for cytotoxic activity, PC-3 [6]: 1.6 µM; ED50 for cytotoxic activity, DU14 [8]: 1.2 µM
2 | Atmp-Igl-Pac-α-Sbl-Lys-B9430 [M590] |  |  | 4.5 | 7.5 |  | ED50 for cytotoxic activity, PPC1 [1]: 12 µM; ED50 for cytotoxic activity, TSU [2]: 7.0 µM; ED50 for cytotoxic activity, SCLC SHP-77 [3]: 4.5 µM; ED50 for cytotoxic activity, LNCa [5]: 7.0 µM; ED50 for cytotoxic activity, PC-3 [6]: 6.3 µM; ED50 for cytotoxic activity, DU14 [8]: 0.01 µM; HUMAN: pA2 for bradykinin antagonist potency on cloned human B2 receptors ([9]; Table 1): Inact
3 | DDD-(DArg-Igl-Arg-Matp)2 [M638] | 0.6 | Inact |  |  |  | inhibition of growth in vivo of SCLC strain SHP-77 [4]: inhibition of growth
4 | Cc1ccc(CSCC(NC(=O)C=Cc2c(F)c(F)c(F)c(F)c2F)C(=O)NC2CC(C)(C)NC(C)(C)C2)cc1 (stereo not drawn) [M456] | 4.7 | 5.3 |  |  | Inact | 
5 | DDD-(Lys-DArg-Arg-Pro-Hyp-Gly-Igl-Ser-DIgl-Oic-Arg)2 [B10054] |  |  | 0.3 | 7.1 |  | inhibition of growth of the SCLC line SHP-77 ([4]; dose of 5 mg/kg/day): marked inhibition of growth; inhibition of growth in vivo of SCLC strain SHP-77 [4]: inhibition of growth
6 | CN(C)CCCNC(=O)C(Cc1ccc2ccccc2c1)NC(=O)C=Cc1c(F)c(F)c(F)c(F)c1F (stereo not drawn) [M526] | 10 | 5.4 |  |  | Inact | 
7 | CN1CCN(NC(=O)C(Cc2ccc3ccccc3c2)NC(=O)C=Cc2c(F)c(F)c(F)c(F)c2F)CC1 (stereo not drawn) [M470] | 11 | 5.2 |  |  | Inact | 
8 | DDD-(Arg-DIgl-Oic-Arg)2 [M226] |  |  | 35 | 5.7 |  | HUMAN: pA2 for bradykinin antagonist potency on cloned human B2 receptors ([9]; Table 1): Inact
9 | CC1(C)CC(NC(=O)[C@H](Cc2ccc3ccccc3c2)NC(=NC2CCCCC2)NC2CCCCC2)CC(C)(C)N1 [M222] | 15 | 6.8 |  |  | Inact | 
10 | O=C(C=Cc1ccc(NC(=O)CCCCCCCCCCC(=O)Nc2ccc(C=CC(=O)NC(Cc3ccc4ccccc4c3)C(=O)NC3CCNCC3)cc2)cc1)NC(Cc1ccc2ccccc2c1)C(=O)NC1CCNCC1 (stereo not drawn) [M606] | 30 | 5.0 |  |  | 10 | 
11 | DArg-Arg-Pro-Hyp-Gly-Igl-Ser-DIgl-Oic-Arg [B9430, reference compound] |  |  | 120 | 8.2 |  | inhibition of growth in vivo of SCLC strain SHP-77 [4]: inhibition of growth; pA2 (antagonist) on guinea pig ileum ([7]; text of Example XVII): 7.9; pA2 (antagonist) on cloned human B2 receptors ([9]; text of Example XVIII): 10.5
12 | CC1(C)CC(NC(=O)C(Cc2csc3ccccc23)NC(=O)C=Cc2c(F)c(F)c(F)c(F)c2F)CC(C)(C)N1 (stereo not drawn) [M418] | 3.8 | 7.0 |  |  | 10.3 | 
13 | DDD-(pABz-2Nal-Arg)2 [M400] |  |  | 22 | 5.1 |  | HUMAN: pA2 for bradykinin antagonist potency on cloned human B2 receptors ([9]; Table 1): 11.5
14 | F5c-OBT-Arg [M550] |  |  | 80 | Inact |  | HUMAN: pA2 for bradykinin antagonist potency on cloned human B2 receptors ([9]; Table 1): Ag
15 | CC1(C)CC(NC(=O)C(Cc2csc3ccccc23)NC(=O)C=Cc2cccs2)CC(C)(C)N1 (stereo not drawn) [M476] | 15 | 4.6 |  |  | Inact | 
16 | COC(=O)CCCCCCCCC(=O)Nc1ccc(C=CC(=O)NC(C(=O)NC2CC(C)(C)NC(C)(C)C2)C2Cc3ccccc3C2)cc1 (stereo not drawn) [M586-A] | 15 | 5.3 |  |  | 12 | 
17 | F5c-2Nal-Arg-NH2 [M450] |  |  | 26 | 4.9 |  | HUMAN: pA2 for bradykinin antagonist potency on cloned human B2 receptors ([9]; Table 1): Inact
18 | CC1(C)CC(NC(=O)[C@H](Cc2csc3ccccc23)NC(=O)CCCCCCCCCCC(=O)N[C@@H](Cc2csc3ccccc23)C(=O)NC2CC(C)(C)NC(C)(C)C2)CC(C)(C)N1 [M430] | 18 | 5.3 |  |  | 11.3 | 
19 | CC1(C)CC(NC(=O)C(NC(=O)C=Cc2ccc(NC(=O)CCCCCCCCCCC(=O)Nc3ccc(C=CC(=O)NC(C(=O)NC4CC(C)(C)NC(C)(C)C4)C4Cc5ccccc5C4)cc3)cc2)C2Cc3ccccc3C2)CC(C)(C)N1 (stereo not drawn) [M294] | 1.8 | Inact |  |  | 10.3 | 
20 | DDD-(DArg-2Nal-Arg-NH2)2 [M510] |  |  | 8 | Inact |  | HUMAN: pA2 for bradykinin antagonist potency on cloned human B2 receptors ([9]; Table 1): 11
21 | DDD-(DArg-F5F-Arg)2 [M822] |  |  | 25 | Mixed |  | inhibition of growth in vivo of SCLC strain SHP-77 [4]: inhibition of growth
22 | O=C(C=Cc1cccnc1)NC(Cc1ccc2ccccc2c1)C(=O)NC1CCCCC1 (stereo not drawn) [M408] | 22 | 4.6 |  |  | 11.5 | 
